Experimental data from patent US10736932B2, “Small molecule Ras inhibitors” (Ohio State Innovation Foundation, priority 2014, dated 2020).
Where “and” joins values, the source holds several entries; their conditions need not be identical. Equal values may be shown once. Entries after “also recorded” stand apart in the source; their conditions may differ. Read-outs that look alike come from different tables or passages of the source. Each block holds one compound with its values, some of them ahead of it. Numbered stars: 1 amine (or outer) side, 2 acyl side, 3 side chain; on linkers, the order of the positions; unused ones are H or OH. Bridge positions count the residues as written; N and C are the ends. Square brackets hold non-standard residues; d marks the D form. Peptide text beside a SMILES is read from it. * marks the point of attachment. ξ: configuration not given here. Lys(5-FITC)NH2 = NC(=O)[C@H](CCCCNC(=S)Nc1ccc2c(c1)C(=O)OC21c2ccc(O)cc2Oc2cc(O)ccc21)N*; FITC = O=C1OC2(c3ccc(O)cc3Oc3cc(O)ccc32)c2ccc(NC(=S)*)cc21; dβ3h(hPhe) = O=C(C[C@@H](CCc1ccccc1)N[*:1])[*:2]; Phe(4-F) = N[C@@H](Cc1ccc(F)cc1)C(=O)O; d2Nal = N[C@H](Cc1ccc2ccccc2c1)C(=O)O; Benzoyl(3-Cl) = O=C(c1cccc(Cl)c1)*; X1 = CC(C)(CO[*:2])C(=O)C(=O)[*:1]; ξ2Nal = NC(Cc1ccc2ccccc2c1)C(=O)O; Tle = CC(C)(C)[C@H](N)C(=O)O; dNle = CCCC[C@@H](N)C(=O)O; Dap = NC[C@H](N)C(=O)O; ξPip = O=C(O)C1CCCCN1

How the values were obtained:
A549 cells [1] = experiment: Cellular uptake of FITC-labeled peptides (live-cell confocal microscopy, FACS); details: for cell permeability relative to earlier peptides: Gln8 replaced with L- or D-arginine
[2] = biological target: maltose-binding protein-XIAP BIR3 domain fusion (Homo sapiens, UniProt P98170); experiment: FA binding of FITC-9A5 to control protein MBP-XIAP BIR3
Sequence of maltose-binding protein-XIAP BIR3 domain fusion (P98170 241-356 limits assumed): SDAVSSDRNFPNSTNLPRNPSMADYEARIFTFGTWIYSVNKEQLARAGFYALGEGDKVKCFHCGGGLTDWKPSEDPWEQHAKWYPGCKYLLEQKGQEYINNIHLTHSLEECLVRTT

[3] = biological target: T1, K-Ras / Raf RBD interaction (Homo sapiens, UniProt P01116, G12V); experiment: HTRF assay, inhibition of Ras-Raf RBD interaction; assay type: binding;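 further: HTRF signal read after overnight incubation of the assay plate at 4 °C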
T1 construct: The G12V mutant K-Ras (amino acids 1-185) was recombinantly fused; GST (N, cleaved yes); made in house; host or cells: Escherichia coli BL21
T1 sequence (P01116 1-185 isoform P01116-2 G12V): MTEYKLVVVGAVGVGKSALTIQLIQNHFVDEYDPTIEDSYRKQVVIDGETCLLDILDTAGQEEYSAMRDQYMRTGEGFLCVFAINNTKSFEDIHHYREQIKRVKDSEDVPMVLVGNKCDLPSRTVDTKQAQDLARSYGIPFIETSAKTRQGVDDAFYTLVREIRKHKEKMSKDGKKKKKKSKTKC
Protocol: Recombinant HA-tagged K-Ras (no GST, 50 nM), GST-Raf RBD (50 nM each), a monoclonal anti-HA antibody labeled with acceptor d2 (2 μg/mL), a monoclonal anti-GST antibody labeled with donor Tb (0.25 μg/mL) (Cisbio), and increasing concentrations of cyclic peptide (0-20 μM) were mixed inPBS (total volume of 20 μL) in a 384-well plate. The plate was incubated overnight at 4° C. and the HTRF signal was measured on a Molecular Devices Spectramax M5 or a Tecan infinite M1000 Pro plate reader. The data were analyzed by Prism 6.0 from Graphpad Software, Inc. (La Jolla, Calif.) and IC50 values were obtained by fitting the data to dose-response-inhibition curve.

[4] = inability to cross the cell membrane; cited from earlier work
H1299 lung cancer cells = assay type: cell-based; details: for anti-proliferative activity against lung cancer cells (in words): MTT assay
Protocol: MTT assays (17) were performed with H1299 lung cancer cells. One hundred μL of H1299 cells (0.5×10^5 cells/mL) were seeded in each well of a 96-well culture plate and allowed to grow overnight in Advanced RPMI medium supplemented with 10% fetal bovine serum (FBS) and 1% penicillin-streptomycin. Varying concentrations of cyclic peptide (0-25 μM) were added to the each well and the cells were incubated at 37° C. with 5% CO2 for 72 hours. Ten μL of a MTT stock solution (Roche) was added into each well. The plate was incubated at 37° C. for 4 h. Then 100 μL of SDS-HCl solubilizing buffer was added into each well, and the resulting solution was mixed thoroughly. The plate was incubated at 37° C. overnight. The absorbance of the formazan product was measured at 570 nm using a Molecular Devices Spectramax M5 plate reader. Each experiment was performed in triplicates and the cells without any peptide added were treated as control.

A549 cells [5] = tested on: A549 cells
K-Ras(G12V) = biological target: T2, K-Ras(G12V) (Homo sapiens, UniProt P01116, G12V); experiment: Fluorescence anisotropy (FA) binding of FITC-labeled cyclic peptides to K-Ras; details: Table 1; resynthesized FITC-labeled peptides, FA, K-Ras; read-out: KD
T2 construct: The G12V mutant K-Ras (amino acids 1-185) was recombinantly fused; GST (N, cleaved yes); made in house; host or cells: Escherichia coli BL21
T2 sequence (P01116 1-185 isoform P01116-2 G12V): as above
Protocol: The 13 hits were resynthesized, labeled with fluorescein isothiocyanate (FITC), purified by HPLC, and tested for binding to K-Ras by fluorescence anisotropy (FA).
For cyclic peptides derived from single library beads (library screening), K-Ras protein (non-GST fusion, 0-20 μM) was incubated with the TMR-labeled peptide (50 or 100 nM) in 20 μL of the blocking buffer for 2.5 h at 24° C. The FA values were measured on a Molecular Devices Spectramax M5 spectrofluorimeter, with excitation and emission wavelengths at 545 and 585 nm, respectively. Equilibrium dissociation constants (KD) were determined by plotting the FA values as a function of K-Ras concentration and fitting the data to the equation
[formula] where Y is the measured anisotropy at a given K-Ras concentration x; L is the peptide concentration; Qb/Qf is the correction fact for dye-protein interaction; Amax is the maximum anisotropy at saturating K-Ras concentration; and Amin is the minimum anisotropy. FA analyses with resynthesized FITC-labeled peptides were similarly carried out, except that the excitation and emission wavelengths were at 494 and 520 nm, respectively.

EGFR phosphorylation = experiment: IP/Western blot of EGFR phosphorylation; assay type: cell-based; details: 13 μM
Excerpt: (§1) Two well characterized Ras effector pathways are the Raf-Mek-Erk and PI3K-Akt signaling pathways (Karnoub, A. E. et al. (2008) Nat Rev. Mol. Cell Biol. 9:517). To determine whether the cyclic peptides inhibited the intracellular Ras activity, Applicants monitored the phosphorylation levels of Mek, Erk, and Akt in cells before and after treatment with the Ras inhibitors. […] In order to rule out that the observed downregulation of P-Mek, P-Erk and P-Akt is caused by inhibition of EGFR signaling, the effect of Cyclosrasin 9A5 on the phosphorylation of the EGFR was tested by performing an IP/Western Blot experiment (FIG. 3E). Active, signaling EGFR is highly autohophosphorylated.

[6] = tested on: phosphorylation of Akt, Mek and Erk in H1299 cells; experiment: Western blot of Ras signaling (Akt, Mek, Erk phosphorylation) in H1299 cells; assay type: cell-based
Excerpt: as §1
(§2) In the MTT assay, A549 cells were also found to be more resistant to the Ras inhibitors than other cell lines.

[7] = tested on: phosphorylation of Akt, Mek and Erk in H1975 cells; experiment: Western blot of Ras signaling in H1975 cells; assay type: cell-based; details: 10 μM, 10 min
Excerpt: as §2
(§3) In H1975 the EGFR is also mutated. Certain mutated EGFR cannot be inhibited with Tarceva® due to the resistance conferring T790M mutation which precludes binding of the drug.

[8] = tested on: phosphorylation of Akt, Mek and Erk in H1650 cells; experiment: Western blot of Ras signaling in H1650 cells; assay type: cell-based; details: 10 μM, 10 min
Excerpt: as §2, §3

[9] = tested on: phosphorylation of Akt, Mek and Erk in A549 cells; experiment: Western blot of Ras signaling in A549 cells; assay type: cell-based; details: 10 μM, 10 min
[10] = tested on: actin filaments in A549 cells; experiment: Actin filament staining (phalloidin-FITC) by confocal microscopy; assay type: cell-based; details: 10 μM, 15 min
Excerpt: The inhibition of Ras affects proliferation and survival of cells. […] These morphological changes are consistent with a collapse of the actin cytoskeleton. The dephosphorylation of cofilin activates the actin filament severing activity of this protein. The severing of actin filaments results in the collapse of the actin cytoskeleton. […] Without actin filaments, cells tend to round up and lose attachment to the substrate.

[11] = inhibition of Ras-Raf interaction, read-out: HTRF IC50

mean fluorescence intensity relative to FITC-9A54 (FACS) (A549 cells [1]; A549 cells, 10 μM FITC-labeled peptide): ~5 fold | Kd [2]: ~30000 nM and 30000 nM
SMILES: CCCC[C@H]1NC(=O)[C@H](Cc2ccc(F)cc2)NC(=O)[C@H](CCCNC(=N)N)NC(=O)[C@@H](Cc2ccc3ccccc3c2)NC(=O)[C@H](CCCCNC(=S)Nc2ccc3c(c2)C(=O)OC32c3ccc(O)cc3Oc3cc(O)ccc32)NC(=O)[C@H](CCCNC(=N)N)NC(=O)[C@H](CCCNC(=N)N)NC(=O)[C@@H](C)NC(=O)[C@H]([C@@H](C)O)NC(=O)[C@H](Cc2c[nH]c3ccccc23)NC(=O)[C@H](CCC(N)=O)NC1=O [FITC-9A5] (cyclo(K(FITC)[d2Nal]R[Phe(4-F)][dNle]QWT[dA]RR))
intracellular fluorescence pattern (confocal microscopy) (A549 cells [1]; A549 cells, 10 μM FITC-labeled peptide, 15 min): intense, defuse fluorescence throughout the cytoplasm

SMILES: CCCC[C@H]1NC(=O)[C@H](Cc2ccc(F)cc2)NC(=O)[C@H](CCCNC(=N)N)NC(=O)[C@@H](Cc2ccc3ccccc3c2)NC(=O)[C@H](CCCNC(=N)N)NC(=O)[C@H](CCCNC(=N)N)NC(=O)[C@@H](CCCNC(=N)N)NC(=O)[C@@H](C)NC(=O)[C@H]([C@@H](C)O)NC(=O)[C@H](Cc2c[nH]c3ccccc23)NC(=O)[C@H](CCC(N)=O)NC1=O [Cyclorasin 9A6, (Trp-Thr-ala-arg-Arg-Arg-nal-Arg-Fpa-nle-Gln)] (cyclo(WT[dA][dR]RR[d2Nal]R[Phe(4-F)][dNle]Q))
cell permeability relative to earlier peptides (A549 cells [1]): improved cell permeability | IC50 [3]: 170 nM

SMILES: CCCC[C@H]1NC(=O)[C@H](Cc2ccc(F)cc2)NC(=O)[C@H](CCCN=C(N)N)NC(=O)C(Cc2ccc3ccccc3c2)NC(=O)[C@H](CCCN=C(N)N)NC(=O)[C@H](CCCN=C(N)N)NC(=O)[C@H](CCC(N)=O)NC(=O)C[C@@H](CCc2ccccc2)NC(=O)C2CCCCN2C(=O)C(=O)C(C)(C)COC1=O (stereo partly drawn) [Compound 12] ([ξPip][dβ3h(hPhe)]QRR[ξ2Nal]R[Phe(4-F)][dNle]; linker N-C via X1)
cellular activity [4]: lacked cellular activity

SMILES: CCCC[C@H]1NC(=O)[C@H](CNC(=O)c2cccc(Cl)c2)NC(=O)[C@H](CCCNC(=N)N)NC(=O)[C@@H](Cc2ccc3ccccc3c2)NC(=O)[C@H](CCCNC(=N)N)NC(=O)[C@H](CCCNC(=N)N)NC(=O)[C@H](CCCNC(=N)N)NC(=O)[C@@H](C)NC(=O)[C@H](C(C)(C)C)NC(=O)[C@H](Cc2c[nH]c3ccccc23)NC(=O)[C@H](CCC(N)=O)NC1=O [Cyclorasin 9A44d, (Trp-Tle-ala-Arg-Arg-Arg-nal-Arg-Dap(3-chlorobenzoyl)-nle-Gln)] (cyclo(W[Tle][dA]RRR[d2Nal]R[Dap](Benzoyl(3-Cl))[dNle]Q))
IC50 (H1299 lung cancer cells; H1299 cells, MTT, 72 hours, read-out: Anti-proliferative Activity IC50): 14000 ± 2000 nM | IC50 [3]: 49 ± 7 nM

SMILES: CCCC[C@H]1NC(=O)[C@H](Cc2ccc(F)cc2)NC(=O)[C@H](CCCNC(=N)N)NC(=O)[C@@H](Cc2ccc3ccccc3c2)NC(=O)[C@H](CCCNC(=N)N)NC(=O)[C@H](CCCNC(=N)N)NC(=O)[C@H](CCC(=O)N[C@@H](CCCCNC(=S)Nc2ccc3c(c2)C(=O)OC32c3ccc(O)cc3Oc3cc(O)ccc32)C(N)=O)NC(=O)[C@@H](C)NC(=O)[C@H]([C@@H](C)O)NC(=O)[C@H](Cc2c[nH]c3ccccc23)NC(=O)[C@@H](CO)NC1=O [Cyclorasin 9A, (Arg-Arg-nal-Arg-Fpa-nle-ser-Trp-Thr-ala-Gln)] (cyclo(RR[d2Nal]R[Phe(4-F)][dNle][dS]WT[dA]E(Lys(5-FITC)NH2)))
cell permeability (A549 cells [1]; A549 cells, 10 μM FITC-labeled peptide, 1.5 h): cell permeable | anti-proliferative activity against lung cancer cells (in words) (H1299 lung cancer cells): weak | IC50 [3, 11]: 650 ± 110 nM

SMILES: C[C@H]1NC(=O)[C@H](CCCNC(=N)N)NC(=O)[C@H](Cc2c[nH]c3ccccc23)NC(=O)[C@H](CCCNC(=N)N)NC(=O)[C@H](Cc2ccc(F)cc2)NC(=O)[C@H](CCCNC(=N)N)NC(=O)[C@@H](Cc2ccc3ccccc3c2)NC(=O)[C@H](CCCNC(=N)N)NC(=O)[C@H](CCCNC(=N)N)NC(=O)[C@H](CCC(N)=O)NC1=O [Cyclorasin 12A, (Arg-Arg-nal-Arg-Fpa-Arg-Trp-Arg-ala-Gln)] (cyclo(RR[d2Nal]R[Phe(4-F)]RWR[dA]Q); ring closure inferred)
anti-proliferative activity against lung cancer cells (in words) (H1299 lung cancer cells): weak | cell permeability (A549 cells [5]): cell permeable | IC50 [3, 11]: 1000 nM

SMILES: CC(C)[C@H]1NC(=O)[C@H](Cc2ccc(F)cc2)NC(=O)[C@H](Cc2ccc(O)cc2)NC(=O)[C@H](CCCNC(=N)N)NC(=O)[C@H](Cc2ccc(F)cc2)NC(=O)[C@H](CCCNC(=N)N)NC(=O)[C@@H](Cc2ccc3ccccc3c2)NC(=O)[C@H](CCCNC(=N)N)NC(=O)[C@H](CCCNC(=N)N)NC(=O)[C@H](CCC(=O)N[C@@H](CCCCNC(=S)Nc2ccc3c(c2)C(=O)OC32c3ccc(O)cc3Oc3cc(O)ccc32)C(N)=O)NC1=O [Cyclorasin 1A, (Arg-Arg-nal-Arg-Fpa-Arg-Tyr-Fpa-val-Gln)] (cyclo(RR[d2Nal]R[Phe(4-F)]RY[Phe(4-F)][dV]E(Lys(5-FITC)NH2)))
Kd (K-Ras(G12V)): > 10000 nM

SMILES: CCCC[C@H]1NC(=O)[C@H](Cc2ccc(F)cc2)NC(=O)[C@H](CCCNC(=N)N)NC(=O)[C@@H](Cc2ccc3ccccc3c2)NC(=O)[C@H](CCCNC(=N)N)NC(=O)[C@H](CCCNC(=N)N)NC(=O)[C@H](CCCNC(=N)N)NC(=O)[C@@H](C)NC(=O)[C@H]([C@@H](C)O)NC(=O)[C@H](Cc2c[nH]c3ccccc23)NC(=O)[C@H](CCC(N)=O)NC1=O [Cyclorasin 9A5, (Trp-Thr-ala-Arg-Arg-Arg-nal-Arg-Fpa-nle-Gln)] (cyclo(WT[dA]RRR[d2Nal]R[Phe(4-F)][dNle]Q))
EGFR phosphorylation level (EGFR phosphorylation): does no affect; also recorded: no effect | cell permeability relative to earlier peptides (A549 cells [1]): improved cell permeability | basal phosphorylation of Mek and Akt ([6]; H1299 cells unstimulated with EGF, 10 μM for 10 min): inhibited | Mek, Erk and Akt phosphorylation ([6]; H1299 cells, 10 μM, 10 min): almost completely abolished | EGF-induced phosphorylation of Akt and Mek ([6]; H1299 cells, 13 μM, 5 min): significant reduction | phosphorylation level of Erk ([6]; H1299 cells, 13 μM, time course): decreased, but to a lesser extent | EGF-induced phosphorylation of Akt and Mek ([6]; H1299 cells, 13 μM, ≥10 min): completely abolished | Mek, Erk and Akt phosphorylation [7]: almost completely abolished; also recorded: can be inhibited | Mek, Erk and Akt phosphorylation [8]: almost completely abolished; also recorded: can be inhibited | Mek, Erk and Akt phosphorylation [9]: significant Mek and Erk phosphorylation remained | IC50 [3]: 120 nM | actin filaments in treated cells [10]: absent
